pIC50: −log10 of the molar value.
Each molecule was assayed against Leukotriene B4 receptor 1 (Homo sapiens, UniProt Q15722) (assay: Inhibition of [3H]Leukotriene B4 binding to human PMN).
Leukotriene B4 receptor 1, sequence (Q15722 whole entry): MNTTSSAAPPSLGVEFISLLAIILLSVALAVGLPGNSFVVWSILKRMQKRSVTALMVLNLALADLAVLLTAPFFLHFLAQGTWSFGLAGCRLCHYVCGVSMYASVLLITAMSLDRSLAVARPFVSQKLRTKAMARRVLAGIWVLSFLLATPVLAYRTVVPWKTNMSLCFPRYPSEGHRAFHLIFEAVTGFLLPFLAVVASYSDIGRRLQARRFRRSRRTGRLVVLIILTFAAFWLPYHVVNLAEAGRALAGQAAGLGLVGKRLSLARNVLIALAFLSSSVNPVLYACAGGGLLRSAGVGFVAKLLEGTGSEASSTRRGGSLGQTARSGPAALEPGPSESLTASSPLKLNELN
For `O=C(O)CCc1cccc(OCCCOc2ccc(-c3cc[nH]n3)cc2)c1`, the pIC50 was less than 6.00. Work on `CCc1cc(-c2cc[nH]n2)c(O)cc1OCCCOc1ccccc1CC(=O)O` yielded a pIC50 of 7.92. Molecule `CCCc1ccc(CCC(=O)O)cc1OCCCOc1cc(O)c(-c2cc[nH]n2)cc1CC` has a pIC50 of 6.13. Work on `CCc1cc(-c2cc[nH]n2)c(O)cc1OCCCOc1ccc(CCC(=O)O)cc1` yielded a pIC50 of 7.06. With `CCc1cc(-c2ccnn2C)c(O)cc1OCCCCCC(C)(C)c1nnn[nH]1` the pIC50 was 6.97. Work on `CCc1cc(-c2cc[nH]n2)c(O)cc1OCCCOc1cccc(CC(=O)O)c1` yielded a pIC50 of 7.96. In the case of `CCCc1c(OCCCOc2cc(O)c(-c3cc[nH]n3)cc2CC)ccc2c1OC(C(=O)O)CC2` (stereo not given), the pIC50 was 8.35. Work on `CCc1cc(-c2cc[nH]n2)c(O)cc1OCCCOc1cccc(CCC(=O)O)c1` yielded a pIC50 of 8.24. `CCc1cc(-c2cc[nH]n2)c(O)cc1OCCCCCOc1ccc(CC(=O)O)cc1` gave a pIC50 of 7.26. `CCc1cc(-c2cc[nH]n2)c(O)cc1OCCCCCOc1ccc(CCC(=O)O)cc1` was tested, and the pIC50 was 7.55. Work on `CCc1cc(-c2ccn[nH]2)c(O)cc1OCCCOc1ccc(CC(=O)O)cc1` yielded a pIC50 of 7.27. In the case of `CCc1cc(-c2cc[nH]n2)c(O)cc1OCCCCCOc1ccc(C(=O)O)cc1`, the pIC50 was 7.09. Work on `CCCc1c(OCCCOc2cc(O)c(C(=O)/C=C/N(C)C)cc2CC)ccc2c1OC(C(=O)O)CC2` (stereo not given) yielded a pIC50 of 6.50. With `CCc1cc(-c2ccn(C)n2)c(O)cc1OCCCCCC(C)(C)c1nnn[nH]1` the pIC50 was 8.03. `CCCc1c(CCC(=O)O)cccc1OCCCOc1cc(O)c(-c2cc[nH]n2)cc1CC` was tested, and the pIC50 was 6.08.
